Values quoted from earlier work, collected in US7314882B2, “Bicyclic heterocycles as cannabinoid receptor modulators” (Bristol-Myers Squibb Company, priority 2005, dated 2008).

Tested on: body weight
Conditions: 16 week trial period

## Cc1c(C(=O)NN2CCCCC2)nn(-c2ccc(Cl)cc2Cl)c1-c1ccc(Cl)cc1 [SR-141716]
  body weight in human subjects: dose-dependently reduced body weight
